Source: patent US8003124B2, “Sustained release implants and methods for subretinal delivery of bioactive agents to treat or prevent retinal disease” (Surmodics, Inc., priority 2005, dated 2011)

Assays:
[1] = In vivo elution: TA by HPLC in eye tissues, aqueous and blood after subretinal PCL/TA 60:40 implant; details: four weeks after subretinal PCL/TA 60:40 implant, rabbit
rabbit eye = details: in vivo
Method: Pupils were fully dilated before implantation with 1 drop each of cyclopentolate hydrochloride 1% (Bausch & Lomb, Rochester, N.Y.) and phenylephrine hydrochloride 5% (Bausch & Lomb). […] A periocular surgical prep was performed by swabbing the area using a 1:10 dilution of povidone iodine in saline. The surface of the eye was prepped with a 1:20 dilution of povidone iodine in saline. The rabbit was positioned under the operating microscope and draped. A wire lid speculum was placed.
A two-port core vitrectomy was performed, with illumination provided by the operating microscope (Carl Zeiss Ophthalmic Systems, Inc.). […] The feathered shape and semi-rigid structure of the implant allowed easy insertion. […] At the conclusion of surgery, a subconjunctival injection of antibiotic, 0.1 cc of 40 mg/ml gentamycin (Phoenix Scientific, St. Joseph, Mo.) and 0.1 cc of 2 mg/ml dexamethasone (Phoenix Scientific) was administered away from the surgery site. […]
Complete ophthalmic examinations using indirect ophthalmoscopy and a 20-diopter lens (Vantage Indirect Ophthalmoscope, Keeler Ltd., Windsor, England) were performed at baseline and 1, 2, and 4 weeks postoperatively. […] The lens was inspected for cataract formation and further evaluated with respect to any lens touch that may have occurred during the implantation.

[2] = three days following an injection; cited from earlier work

## CC1(C)O[C@@H]2C[C@H]3[C@@H]4CCC5=CC(=O)C=C[C@]5(C)[C@@]4(F)[C@@H](O)C[C@]3(C)[C@]2(C(=O)CO)O1 [TA, Triamcinolone acetonide]
[1]
  TA in the anterior structures (HPLC): not detected
  TA in the blood (HPLC): not detected
[1]; qualitative, FIG. 9
  TA in the posterior tissue samples (HPLC): confirmed the presence

## CO[C@H]1C[C@@H]2CC[C@@H](C)[C@@](O)(O2)C(=O)C(=O)N2CCCC[C@H]2C(=O)O[C@H]([C@H](C)C[C@@H]2CC[C@@H](O)[C@H](OC)C2)CC(=O)[C@H](C)/C=C(\C)[C@@H](O)[C@@H](OC)C(=O)[C@H](C)C[C@H](C)/C=C/C=C/C=C/1C [rapamycin]
Rabbit eye
  biocompatibility / toxicity, clinical examinations: may be toxic to the rabbit eye at the current doses

## C[C@]12C=CC(=O)C=C1CC[C@H]1[C@@H]3C[C@@H](O)[C@](O)(C(=O)CO)[C@@]3(C)C[C@H](O)[C@@]12F [triamcinolone]
[2]
  share of the triamcinolone present in the vitreous associated with other tissues including the retina, pigment epithelium, and sclera: less than 1%
